Consider 14 compounds from ChEMBL document CHEMBL5625175, “Quinazoline-based VEGFR-2 inhibitors as potential anti-angiogenic agents: A contemporary perspective of SAR and molecular docking studies” (Eur J Med Chem, 2023).

≈ marks a conversion by molar mass, not a printed value.

The target in data set [1] is T1, Vascular endothelial growth factor receptor 2 (Homo sapiens, UniProt P35968). Briefly: Inhibition of VEGFR-2 (unknown origin) by Kinase-Glo Max assay. Background: Kinase-Glo reads ATP consumption through a luciferase reaction.
T1 sequence (P35968 whole entry): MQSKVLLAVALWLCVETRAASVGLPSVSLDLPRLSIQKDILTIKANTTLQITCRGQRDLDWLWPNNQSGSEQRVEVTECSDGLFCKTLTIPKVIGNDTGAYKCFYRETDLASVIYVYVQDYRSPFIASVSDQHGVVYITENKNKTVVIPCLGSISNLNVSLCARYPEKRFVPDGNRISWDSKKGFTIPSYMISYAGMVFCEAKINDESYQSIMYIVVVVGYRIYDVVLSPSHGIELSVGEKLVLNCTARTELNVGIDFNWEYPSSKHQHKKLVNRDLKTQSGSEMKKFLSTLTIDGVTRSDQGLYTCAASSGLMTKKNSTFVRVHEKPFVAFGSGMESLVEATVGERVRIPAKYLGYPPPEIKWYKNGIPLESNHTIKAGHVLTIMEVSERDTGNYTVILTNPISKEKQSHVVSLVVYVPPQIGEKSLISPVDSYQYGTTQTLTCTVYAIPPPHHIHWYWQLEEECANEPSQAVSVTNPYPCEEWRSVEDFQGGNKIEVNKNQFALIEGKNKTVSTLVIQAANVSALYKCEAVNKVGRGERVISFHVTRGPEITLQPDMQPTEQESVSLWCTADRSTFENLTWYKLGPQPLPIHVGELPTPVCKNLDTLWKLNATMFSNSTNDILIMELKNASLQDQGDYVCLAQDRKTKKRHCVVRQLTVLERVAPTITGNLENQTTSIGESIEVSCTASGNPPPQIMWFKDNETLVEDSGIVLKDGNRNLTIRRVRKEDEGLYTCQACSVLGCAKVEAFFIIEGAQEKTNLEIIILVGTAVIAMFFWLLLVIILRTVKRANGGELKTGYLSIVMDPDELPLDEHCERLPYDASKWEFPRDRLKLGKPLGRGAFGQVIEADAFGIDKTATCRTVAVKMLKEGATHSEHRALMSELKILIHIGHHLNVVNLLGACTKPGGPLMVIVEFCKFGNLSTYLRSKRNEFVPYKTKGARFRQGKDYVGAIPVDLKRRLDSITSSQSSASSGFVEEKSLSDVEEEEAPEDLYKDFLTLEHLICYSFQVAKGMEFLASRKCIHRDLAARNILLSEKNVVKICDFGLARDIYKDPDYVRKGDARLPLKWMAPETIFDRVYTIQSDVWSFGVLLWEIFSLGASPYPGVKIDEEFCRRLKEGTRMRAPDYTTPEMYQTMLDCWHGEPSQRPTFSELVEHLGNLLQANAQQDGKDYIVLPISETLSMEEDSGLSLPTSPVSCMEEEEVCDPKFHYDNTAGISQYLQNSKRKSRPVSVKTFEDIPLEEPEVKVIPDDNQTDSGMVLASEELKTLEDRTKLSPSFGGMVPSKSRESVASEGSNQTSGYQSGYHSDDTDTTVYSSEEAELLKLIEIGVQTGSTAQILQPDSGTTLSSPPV
Data set [2] is described as follows: Antiproliferative activity against human WI-38 cells assessed as reduction in cell growth measured after 24 hrs by MTT assay. Type of data set: toxicity, cell-based. A general note: Tetrazolium dyes change colour on reduction, which living cells bring about.
The test system of data set [3] is HCT-116. Briefly: Antiproliferative activity against human HCT-116 cells assessed as reduction in cell growth incubated for 24 hrs by MTT assay. Format: functional, cell-based. The settings on record: HCT-116, 24 h.
The subject of data set [4] is MCF7. Kind of data set: Antiproliferative activity against human MCF7 cells assessed as reduction in cell growth incubated for 24 hrs by MTT assay. Type of data set: functional, cell-based. The settings on record: MCF7, 24 h.
Data set [5] relates to MCF7. Briefly: Cytotoxicity against human MCF7 cells assessed as reduction in cell growth incubated for 24 hrs by MTT assay. Type of data set: functional, cell-based. The settings on record: MCF7, 24 h.
In data set [6] the test system is MCF7. Kind of data set: Induction of cell cycle arrest in human MCF7 cells assessed as reduction in accumulation of cells in G2/M phase at 10 uM incubated for 24 hrs by PI staining based flow cytometry analysis relative to control. Format: functional. Further details: scale not given: the % may be the effect or the level left. Background: Flow cytometry measures light scatter and fluorescence of single cells or particles in a stream.

The target of data set [7] is T1, Vascular endothelial growth factor receptor 2.
In data set [8] the test system is MCF7. Briefly: Antiproliferative activity against human MCF7 cells assessed as reduction in cell viability measured after 48 hrs by MTT assay. Format: functional, cell-based. Conditions: MCF7, 48 h.
For data set [9], the system named is HCT-116. Briefly: Antiproliferative activity against human HCT-116 cells assessed as reduction in cell viability measured after 48 hrs by MTT assay. Type of data set: functional, cell-based. Conditions: HCT-116, 48 h.
The subject of data set [10] is HepG2. Briefly: Antiproliferative activity against human HepG2 cells assessed as reduction in cell growth incubated for 48 hrs by MTT based colorimetric analysis. Conditions: HepG2, 48 h. Type of data set: functional.
A further data set concerns MHCC97H. Kind of data set: Antiproliferative activity against human MHCC97H cells assessed as reduction in cell viability incubated for 48 hrs by CCK-8 assay. Type of data set: functional, cell-based.
Data set [11] concerns HUVEC. Kind of data set: Antiproliferative activity against HUVEC cells assessed as reduction in cell viability incubated for 48 hrs by CCK-8 assay. Format: functional, cell-based. Conditions: Homo sapiens.
For a further data set, the system named is L02. Briefly: Cytotoxicity against human L02 cells assessed as cell growth inhibition measured after 48 hrs by CCK-8 assay. Conditions: L02, 48 h. Type of data set: functional, cell-based.
Another data set concerns HEK293. Kind of data set: Cytotoxicity against HEK293 cells assessed as cell growth inhibition measured after 48 hrs by CCK-8 assay. Type of data set: functional, cell-based. Conditions: Homo sapiens, HEK293, 48 h.
In data set [12] the target is Platelet-derived growth factor receptor beta (Homo sapiens, UniProt P09619). Briefly: Inhibition of human recombinant PDGFRbeta using poly (Glu, Tyr)4:1 as substrate measured after 60 mins by ELISA.
Platelet-derived growth factor receptor beta, sequence (P09619 whole entry): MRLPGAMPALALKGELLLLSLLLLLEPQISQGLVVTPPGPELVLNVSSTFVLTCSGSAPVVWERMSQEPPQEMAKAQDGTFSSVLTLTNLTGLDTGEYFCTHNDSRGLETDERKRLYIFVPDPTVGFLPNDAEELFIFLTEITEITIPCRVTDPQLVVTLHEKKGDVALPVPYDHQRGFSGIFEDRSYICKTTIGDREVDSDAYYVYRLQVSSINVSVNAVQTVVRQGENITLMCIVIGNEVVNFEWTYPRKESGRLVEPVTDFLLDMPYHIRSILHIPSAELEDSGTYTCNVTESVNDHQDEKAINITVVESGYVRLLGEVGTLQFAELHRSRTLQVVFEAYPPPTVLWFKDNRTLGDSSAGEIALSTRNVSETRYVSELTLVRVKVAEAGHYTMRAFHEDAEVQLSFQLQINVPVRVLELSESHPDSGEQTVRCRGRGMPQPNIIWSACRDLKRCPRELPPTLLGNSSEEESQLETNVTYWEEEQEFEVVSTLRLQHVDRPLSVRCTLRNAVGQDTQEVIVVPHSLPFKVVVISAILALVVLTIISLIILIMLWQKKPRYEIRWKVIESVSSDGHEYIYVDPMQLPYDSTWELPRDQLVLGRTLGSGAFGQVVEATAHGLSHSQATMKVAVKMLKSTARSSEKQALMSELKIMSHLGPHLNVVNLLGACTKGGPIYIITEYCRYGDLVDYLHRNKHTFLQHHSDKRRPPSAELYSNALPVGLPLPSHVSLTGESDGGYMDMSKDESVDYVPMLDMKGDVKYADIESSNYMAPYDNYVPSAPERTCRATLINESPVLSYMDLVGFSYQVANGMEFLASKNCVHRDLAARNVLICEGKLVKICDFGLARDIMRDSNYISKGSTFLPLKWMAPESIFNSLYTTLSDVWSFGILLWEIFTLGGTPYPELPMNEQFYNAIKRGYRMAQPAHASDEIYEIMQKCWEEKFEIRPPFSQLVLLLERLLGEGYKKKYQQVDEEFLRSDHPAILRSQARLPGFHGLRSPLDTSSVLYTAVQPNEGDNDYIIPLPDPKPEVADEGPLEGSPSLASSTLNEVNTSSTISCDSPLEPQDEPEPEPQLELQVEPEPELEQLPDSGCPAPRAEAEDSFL
Another data set concerns the target Angiopoietin-1 receptor (Homo sapiens, UniProt Q02763). Kind of data set: Inhibition of TIE-2 (unknown origin).
In the next data set the target is Ephrin type-B receptor 4 (Homo sapiens, UniProt P54760).
Ephrin type-B receptor 4, sequence (P54760 whole entry): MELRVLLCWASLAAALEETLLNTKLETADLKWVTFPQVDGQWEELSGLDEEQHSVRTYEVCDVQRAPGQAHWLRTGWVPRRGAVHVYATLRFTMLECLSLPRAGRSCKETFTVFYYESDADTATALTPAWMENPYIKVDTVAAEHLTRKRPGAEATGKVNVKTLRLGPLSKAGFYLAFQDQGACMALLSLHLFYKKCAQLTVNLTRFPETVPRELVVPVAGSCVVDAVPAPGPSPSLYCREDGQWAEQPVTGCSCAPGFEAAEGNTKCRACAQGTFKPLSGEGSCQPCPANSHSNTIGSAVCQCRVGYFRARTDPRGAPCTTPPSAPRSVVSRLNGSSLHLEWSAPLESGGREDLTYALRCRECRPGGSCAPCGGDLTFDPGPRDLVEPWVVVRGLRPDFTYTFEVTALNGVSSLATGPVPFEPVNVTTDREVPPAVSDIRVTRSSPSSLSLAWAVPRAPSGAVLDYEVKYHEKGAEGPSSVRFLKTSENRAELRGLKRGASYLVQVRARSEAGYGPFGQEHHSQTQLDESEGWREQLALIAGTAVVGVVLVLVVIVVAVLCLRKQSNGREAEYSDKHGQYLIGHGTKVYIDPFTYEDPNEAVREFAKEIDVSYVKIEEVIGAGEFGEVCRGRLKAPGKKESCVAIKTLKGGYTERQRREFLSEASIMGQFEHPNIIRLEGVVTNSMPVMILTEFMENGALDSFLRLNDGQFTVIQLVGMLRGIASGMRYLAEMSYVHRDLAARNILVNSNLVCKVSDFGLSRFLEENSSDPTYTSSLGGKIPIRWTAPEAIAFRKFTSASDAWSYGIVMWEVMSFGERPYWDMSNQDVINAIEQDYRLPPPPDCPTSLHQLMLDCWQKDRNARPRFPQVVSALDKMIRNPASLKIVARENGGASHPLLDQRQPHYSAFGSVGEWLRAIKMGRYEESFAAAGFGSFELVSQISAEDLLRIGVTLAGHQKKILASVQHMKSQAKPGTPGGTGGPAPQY
For data set [13], the system named is HUVEC. Briefly: Antiproliferative activity against VEGF-stimulated HUVEC cells assessed as cell growth inhibition measured after 24 hrs by BrdUrd incorporation based spectrophotometric analysis. Type of data set: functional. The settings on record: Homo sapiens.
Data set [14] deals with T1, Vascular endothelial growth factor receptor 2. Kind of data set: Inhibition of human VEGFR-2 using biotinylated synthetic peptide biotin-aminohexyl-EEEEYFELVAKKKK-NH2 as substrate pre-incubated for 30 mins and measured after 30 mins by FRET assay.
The next data set concerns PC-3. Briefly: Antiproliferative activity against human PC-3 cells assessed as reduction in cell growth measured after 24 hrs by MTT assay. Type of data set: functional, cell-based. The settings on record: PC-3, 24 h.
Data set [15] has as its system MCF7. Briefly: Antiproliferative activity against human MCF7 cells assessed as reduction in cell growth measured after 24 hrs by MTT assay. Format: functional, cell-based. The settings on record: MCF7, 24 h.
The test system of data set [16] is HepG2. Briefly: Antiproliferative activity against human HepG2 cells assessed as reduction in cell growth measured after 24 hrs by MTT assay. Type of data set: functional, cell-based. Conditions: HepG2, 24 h.
The test system of data set [17] is MDA-MB-231. Briefly: Cytotoxicity against human MDA-MB-231 cells assessed as reduction in cell viability incubated for 48 hrs by MTT assay. Format: functional, cell-based. Conditions: MDA-MB-231, 48 h.
The subject of data set [18] is MDA-MB-231. Briefly: Cytotoxicity against human MDA-MB-231 cells assessed as reduction in cell viability incubated for 24 hrs by MTT assay. Type of data set: functional, cell-based. Conditions: MDA-MB-231, 24 h.
The target of data set [19] is T1, Vascular endothelial growth factor receptor 2. The source holds these as a separate data set.
Data set [20] deals with HCT-116. Briefly: Growth inhibition of human HCT-116 cells incubated for 24 hrs by MTT assay. Type of data set: functional.
For data set [21], the system named is MCF7. Briefly: Growth inhibition of human MCF7 cells incubated for 24 hrs by MTT assay. Type of data set: functional.
Data set [22] deals with HepG2. Briefly: Growth inhibition of human HepG2 cells incubated for 24 hrs by MTT assay. Type of data set: functional.
Another data set relates to Calu-6. Kind of data set: Antitumor activity against human Calu-6 cells xenografted in athymic mouse assessed as inhibition of tumor growth at 100 mg/kg, po administered once daily for 21 days relative to control. Further details: scale not given: the % may be the effect or the level left. Type of data set: functional. The settings on record: time 21 day.
The nature of a further data set: in vitro. The settings on record: human, HUVEC cells.
For data set [23], the system named is HUVEC. Briefly: cells. Conditions: Homo sapiens.
Data set [24] relates to HUVEC. Briefly: cells. The settings on record: Homo sapiens. This is another data set of the same source.
Data set [25] in a line: Half life in rat at 5 mg/kg, iv. Type of data set: ADME, organism-based. Conditions: in vivo.
Data set [26] can be described thus: Oral bioavailability in rat at 2.5 mg/kg. Type of data set: ADME, organism-based. The settings on record: in vivo.

Angiopoietin-1 receptor, sequence (Q02763 whole entry): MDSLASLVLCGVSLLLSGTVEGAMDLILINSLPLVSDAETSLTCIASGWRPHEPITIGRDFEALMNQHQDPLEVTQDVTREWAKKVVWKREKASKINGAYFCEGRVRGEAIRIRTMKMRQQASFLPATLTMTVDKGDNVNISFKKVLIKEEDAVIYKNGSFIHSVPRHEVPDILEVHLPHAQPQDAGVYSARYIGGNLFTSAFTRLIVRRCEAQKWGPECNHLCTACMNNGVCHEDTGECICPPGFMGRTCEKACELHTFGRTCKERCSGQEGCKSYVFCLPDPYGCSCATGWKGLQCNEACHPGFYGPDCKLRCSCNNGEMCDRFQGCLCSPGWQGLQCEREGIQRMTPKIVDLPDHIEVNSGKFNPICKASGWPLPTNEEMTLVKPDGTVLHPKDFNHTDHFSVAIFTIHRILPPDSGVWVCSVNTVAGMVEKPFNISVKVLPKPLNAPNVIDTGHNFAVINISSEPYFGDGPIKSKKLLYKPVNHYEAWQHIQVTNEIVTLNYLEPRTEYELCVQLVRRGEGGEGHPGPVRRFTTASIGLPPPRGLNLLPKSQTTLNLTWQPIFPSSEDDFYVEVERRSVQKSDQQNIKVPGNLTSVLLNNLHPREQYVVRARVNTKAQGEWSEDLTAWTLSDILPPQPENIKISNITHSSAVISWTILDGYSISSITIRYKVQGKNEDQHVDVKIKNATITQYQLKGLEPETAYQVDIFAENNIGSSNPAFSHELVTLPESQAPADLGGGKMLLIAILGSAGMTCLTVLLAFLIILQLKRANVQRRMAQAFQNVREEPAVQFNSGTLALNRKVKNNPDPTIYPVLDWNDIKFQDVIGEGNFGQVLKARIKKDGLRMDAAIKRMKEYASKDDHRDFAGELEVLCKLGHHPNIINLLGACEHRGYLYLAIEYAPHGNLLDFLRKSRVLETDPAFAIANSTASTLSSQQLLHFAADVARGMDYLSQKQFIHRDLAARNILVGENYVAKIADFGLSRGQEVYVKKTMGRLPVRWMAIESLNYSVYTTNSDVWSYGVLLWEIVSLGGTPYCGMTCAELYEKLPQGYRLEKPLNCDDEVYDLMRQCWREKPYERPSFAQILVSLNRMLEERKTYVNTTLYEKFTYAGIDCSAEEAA

Usually IC50 stands for the midpoint of a concentration-inhibition curve. For the compound `CNC(=O)c1c(C)oc2cc(Oc3ncnc4cc(OC)c(OC)cc34)ccc12` [FRUQUINTINIB], in data set [1], 35 nM corresponded to half-maximal inhibition (IC50).

As for `CCn1c(SCC(=O)NNC(=O)c2ccccc2)nc2ccc([N+](=O)[O-])cc2c1=O`, the IC50 at 24 h in [2] was 146 µg/mL (≈ 341 µM).

For `CCn1c(SCC(=O)Nc2ccc(/C(C)=N/O)cc2)nc2ccccc2c1=O`, the IC50 came to 4830 nM in the data set with HCT-116 [3] and 4580 nM in the data set with MCF7 [4].

For the compound `NS(=O)(=O)c1ccc(-n2c(SCC(=O)N/N=C/c3ccc(Cl)cc3Cl)nc3cc4ccccc4cc3c2=O)cc1`, the IC50 in the data set on MCF7 [5] was found to be 100 nM; in data set [7], 640 nM. Besides, in the data set on MCF7 [6], the Activity came out at 24.17%.

In the case of `O=C(CSc1nc2ccc(Cl)cc2c(=O)n1-c1ccccc1)N/N=C/c1cccc(F)c1`, the IC50 in the data set on MCF7 [8] came to 9630 nM; with HCT-116 [9] it was 1580 nM.

Consider `CCNC(=S)NS(=O)(=O)c1ccc(NC(=O)CSc2nc3ccccc3c(=O)n2CC)cc1`, for which the IC50 with HepG2 [10] came to 4330 nM.

For `COc1cc2nccc(Oc3ccc(NC(=O)C4(C(=O)Nc5ccc(F)cc5)CC4)cc3)c2cc1OC` [CABOZANTINIB], the IC50 was determined as 25 µg/mL (≈ 49.8 µM) in the data set with MHCC97H and 2.7 µg/mL (≈ 5.38 µM) in the data set with HUVEC [11].

Consider `COc1cc2ncnc(Oc3ccc(NC(=O)C4(C(=O)Nc5ccc(F)cc5)CC4)cc3F)c2c2c1OCCO2`, for which the IC50 in the data set on MHCC97H came to 58.6 µg/mL (≈ 107 µM); with L02, 12.6 µg/mL (≈ 23 µM); with HEK293 it was 15.1 µg/mL (≈ 27.5 µM); in the data set with HUVEC [11], 3.7 µg/mL (≈ 6.75 µM).

On to `O=C(Nc1ccc(-c2ccc3c(=O)[nH]cnc3c2)cc1)Nc1ccc(F)c(F)c1`, for which the IC50 in data set [12] stood at 98500 nM; at Angiopoietin-1 receptor it was 8870 nM; at Ephrin type-B receptor 4 it was 3210 nM.

Take `COc1cc2nc(-c3ccccc3)n(-c3nnc(-c4ccc(Cl)cc4)s3)c(=O)c2cc1OC`: the values for the IC50 (in the data set on HUVEC [13]; in data set [14]) were 5.5 nM and 3.8 nM, respectively.

For the compound `COc1cccc2c1C(=O)c1c(O)c3c(c(O)c1C2=O)C[C@@](O)(C(=O)CO)C[C@@H]3O[C@H]1C[C@H](N)[C@H](O)[C@H](C)O1` [DOXORUBICIN], the figures for the IC50 in the data set on PC-3, with MCF7 [15] and with HepG2 [16] were 8.87 µg/mL (≈ 16.3 µM), 6.75 µg/mL (≈ 12.4 µM) and 7.94 µg/mL (≈ 14.6 µM), respectively.

Take `COc1cccc(CNC(=O)CSc2nc3ccccc3c(=O)n2-c2ccc(S(N)(=O)=O)cc2)c1OC`: the IC50 with MDA-MB-231 [17] was 510 nM; with MDA-MB-231 [18], 340 nM; in [19] it was 247 nM.

Broadly, the GI50 is the concentration giving 50% growth inhibition. In the case of `O=C(Cn1c(=O)c2ccccc2n(Cc2ccccc2)c1=O)Nc1ccc(C(=O)N/N=C/c2ccc(Cl)cc2)cc1`, the GI50 in the data set with HCT-116 [20] came to 5690 nM; in the data set on MCF7 [21], 5270 nM; with HepG2 [22], 9160 nM. Also, the IC50 in data set [19] is 120 nM.

Broadly, the EC50 is the midpoint of the concentration-response curve. A word on the half-life: it is how long it takes for the measured level to halve. What is called bioavailability is the share of a dose that reaches the circulation, judged against a reference dose that is usually intravenous. Take `COc1cc2/c(=N/c3ccc(Br)cc3F)nc[nH]c2cc1OCC1CCN(C)CC1` [VANDETANIB]: the Activity in the data set with Calu-6 came out at 79%. For the same compound, the EC50 in “in vitro” was more than 3000 nM; with HUVEC [23], 10 nM; in the data set with HUVEC [24], 60 nM. Besides, in [25], the half-life was 8.3 h. The compound also gave a bioavailability in data set [26] of more than 50%.
